One molecule from ChEMBL document CHEMBL3886234, “Isoform selective phospholipase D inhibitors” (2015) can be followed below.

One may read the IC50 as the concentration at which inhibition is half-maximal. A low value points to greater potency in that assay.

The assay addresses T1, Phospholipase D1 (Homo sapiens, UniProt Q13393).
T1 sequence (Q13393 whole entry): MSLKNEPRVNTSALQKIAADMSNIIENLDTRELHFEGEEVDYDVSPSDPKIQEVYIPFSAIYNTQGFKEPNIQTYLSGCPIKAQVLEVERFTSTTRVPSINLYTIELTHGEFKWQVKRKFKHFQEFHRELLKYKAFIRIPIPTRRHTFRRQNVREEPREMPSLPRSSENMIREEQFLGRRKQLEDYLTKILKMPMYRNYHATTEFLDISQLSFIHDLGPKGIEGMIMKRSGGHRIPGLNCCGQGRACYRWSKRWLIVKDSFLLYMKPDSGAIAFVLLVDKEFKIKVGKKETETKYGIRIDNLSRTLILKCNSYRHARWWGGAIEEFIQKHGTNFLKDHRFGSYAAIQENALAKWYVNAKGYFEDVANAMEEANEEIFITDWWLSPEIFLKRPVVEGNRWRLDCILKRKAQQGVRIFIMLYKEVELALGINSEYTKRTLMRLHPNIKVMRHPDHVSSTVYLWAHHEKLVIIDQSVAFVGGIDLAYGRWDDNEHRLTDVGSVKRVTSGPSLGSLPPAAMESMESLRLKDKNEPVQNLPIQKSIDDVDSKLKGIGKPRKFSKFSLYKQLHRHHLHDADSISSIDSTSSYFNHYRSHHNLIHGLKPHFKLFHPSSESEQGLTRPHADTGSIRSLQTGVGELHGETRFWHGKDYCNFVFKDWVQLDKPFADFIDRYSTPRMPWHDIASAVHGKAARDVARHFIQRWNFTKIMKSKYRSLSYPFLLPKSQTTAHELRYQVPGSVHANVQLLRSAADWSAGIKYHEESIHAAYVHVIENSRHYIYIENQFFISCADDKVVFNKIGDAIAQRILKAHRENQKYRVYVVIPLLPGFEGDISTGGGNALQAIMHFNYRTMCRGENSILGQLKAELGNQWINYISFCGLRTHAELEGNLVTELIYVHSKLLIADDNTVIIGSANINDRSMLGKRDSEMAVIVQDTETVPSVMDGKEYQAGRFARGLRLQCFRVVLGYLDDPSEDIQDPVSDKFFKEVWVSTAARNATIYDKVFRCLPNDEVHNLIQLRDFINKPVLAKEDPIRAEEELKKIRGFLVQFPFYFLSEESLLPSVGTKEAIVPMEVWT
The assay can be described thus: Inhibition Assay: In one aspect, the compound inhibits PLD activity; that is, a compound can inhibit PLD1 activity and/or PLD2 activity. In a further aspect, the compound inhibits PLD1 response in Calu-1 cells. In a further aspect, the compound inhibits PLD2 response in HEK293gfpPLD2 cells. In a further aspect, the compound inhibits in vitro PLD1 response. In a further aspect, the compound …. In kind it is cell-based.

Each structure is given as a SMILES string.

With `C[C@@H](CN1CCC2(CC1)C(=O)NC[C@@H]2c1ccc(F)cc1)NC(=O)c1ccc(F)cc1`, the midpoint of inhibition, the IC50, lay at 1200 nM.
